The record followed here is ChEMBL document CHEMBL2380247, “Synthesis and biological evaluation of novel aliphatic amido-quaternary ammonium salts for anticancer chemotherapy: part II” (2013).

The term GI50 denotes the concentration giving 50% growth inhibition. Read a low GI50 as greater sensitivity of the cells.

What all share (type): functional
In experiment [1] the test system is NUGC-3. The experiment is described as follows: Antiproliferative activity against human NUGC3 cells at 3 uM by SRB assay.
The subject of experiment [2] is ACHN. Nature of the experiment: Antiproliferative activity against human ACHN cells at 1 uM by SRB assay.
Experiment [3] concerns HCT-15. Nature of the experiment: Antiproliferative activity against human HCT15 cells at 1 uM by SRB assay. In general terms: Sulforhodamine B stains cellular protein and so reports cell mass.
Experiment [4] concerns NUGC-3. Nature of the experiment: Antiproliferative activity against human NUGC3 cells at 0.1 uM by SRB assay.
In experiment [5] the test system is HCT-15. The experiment is described as follows: Antiproliferative activity against human HCT15 cells at 0.3 uM by SRB assay.
The test system of experiment [6] is ACHN. The experiment is described as follows: Antiproliferative activity against human ACHN cells at 3 uM by SRB assay.
For experiment [7], the system named is MDA-MB-231. The experiment is described as follows: Antiproliferative activity against human MDA-MB-231 cells at 0.3 uM by SRB assay.
Experiment [8] relates to ACHN. Nature of the experiment: Antiproliferative activity against human ACHN cells by SRB assay.
In experiment [9] the test system is ACHN. The experiment is described as follows: Antiproliferative activity against human ACHN cells at 0.1 uM by SRB assay.
For experiment [10], the system named is NCI-H23. Nature of the experiment: Antiproliferative activity against human NCI-H23 cells at 0.1 uM by SRB assay.
Experiment [11] has as its system NCI-H23. The experiment is described as follows: Antiproliferative activity against human NCI-H23 cells at 1 uM by SRB assay.
In experiment [12] the test system is NCI-H23. Nature of the experiment: Antiproliferative activity against human NCI-H23 cells at 3 uM by SRB assay.
In experiment [13] the test system is NUGC-3. Nature of the experiment: Antiproliferative activity against human NUGC3 cells at 0.3 uM by SRB assay.
For experiment [14], the system named is MDA-MB-231. Nature of the experiment: Antiproliferative activity against human MDA-MB-231 cells at 0.1 uM by SRB assay.
The test system of experiment [15] is NCI-H23. Nature of the experiment: Antiproliferative activity against human NCI-H23 cells at 0.3 uM by SRB assay.
In experiment [16] the test system is NUGC-3. Nature of the experiment: Antiproliferative activity against human NUGC3 cells at 10 uM by SRB assay.
Experiment [17] concerns NCI-H23. Nature of the experiment: Antiproliferative activity against human NCI-H23 cells at 10 uM by SRB assay.
For experiment [18], the system named is HCT-15. The experiment is described as follows: Antiproliferative activity against human HCT15 cells at 10 uM by SRB assay.
The test system of experiment [19] is ACHN. Nature of the experiment: Antiproliferative activity against human ACHN cells at 10 uM by SRB assay.
Experiment [20] concerns PC-3. The experiment is described as follows: Antiproliferative activity against human PC3 cells at 0.1 uM by SRB assay.
Experiment [21] deals with MDA-MB-231. Nature of the experiment: Antiproliferative activity against human MDA-MB-231 cells at 3 uM by SRB assay.
The subject of experiment [22] is PC-3. Nature of the experiment: Antiproliferative activity against human PC3 cells at 3 uM by SRB assay.
The test system of experiment [23] is NUGC-3. Nature of the experiment: Antiproliferative activity against human NUGC3 cells at 1 uM by SRB assay.
Experiment [24] has as its system HCT-15. The experiment is described as follows: Antiproliferative activity against human HCT15 cells by SRB assay.
In experiment [25] the test system is MDA-MB-231. The experiment is described as follows: Antiproliferative activity against human MDA-MB-231 cells by SRB assay.
The subject of experiment [26] is HCT-15. The experiment is described as follows: Antiproliferative activity against human HCT15 cells at 3 uM by SRB assay.
Experiment [27] has as its system MDA-MB-231. The experiment is described as follows: Antiproliferative activity against human MDA-MB-231 cells at 1 uM by SRB assay.
In experiment [28] the test system is NUGC-3. Nature of the experiment: Antiproliferative activity against human NUGC3 cells by SRB assay.
Experiment [29] deals with PC-3. The experiment is described as follows: Antiproliferative activity against human PC3 cells by SRB assay.
Experiment [30] has as its system PC-3. Nature of the experiment: Antiproliferative activity against human PC3 cells at 0.3 uM by SRB assay.
The test system of experiment [31] is PC-3. Nature of the experiment: Antiproliferative activity against human PC3 cells at 10 uM by SRB assay.
For experiment [32], the system named is MDA-MB-231. Nature of the experiment: Antiproliferative activity against human MDA-MB-231 cells at 10 uM by SRB assay.
In experiment [33] the test system is PC-3. The experiment is described as follows: Antiproliferative activity against human PC3 cells at 1 uM by SRB assay.
In experiment [34] the test system is HCT-15. The experiment is described as follows: Antiproliferative activity against human HCT15 cells at 0.1 uM by SRB assay.
Experiment [35] relates to ACHN. The experiment is described as follows: Antiproliferative activity against human ACHN cells at 0.3 uM by SRB assay.
Experiment [36] concerns NCI-H23. Nature of the experiment: Antiproliferative activity against human NCI-H23 cells by SRB assay.

The structures appear in SMILES notation.

As for `C=CC[N+](C)(C)CC(C)(C)CNC(=O)CCCCCCCCCCCCCCCCC`, the growth, % of control at 3 µM in [1] is 28.5%; in experiment [6], 60.4%; in experiment [12], 29.4%; in [21] it was 48.3%; in [22] it was -27.7%; in experiment [26], 85.5%. Moreover, the growth, % of control at 1 µM in [2] was found to be 85.1%; in experiment [3] it was 99%; in [11] it was 75.3%; in [23] it was 65.2%; in experiment [27], 80.8%; in experiment [33], 33.7%. Further, the growth, % of control at 0.1 µM in experiment [4] stood at 92.3%; in experiment [9], 93.2%; in [10], 92.8%; in [14], 94.3%; in [20], 94.9%; in [34], 102%. Also, the growth, % of control at 0.3 µM in [5] is 99.8%; in experiment [7] it was 88.8%; in experiment [13], 89.9%; in experiment [15] it was 93.7%; in experiment [30], 91%; in experiment [35], 93.5%. Moreover, the GI50 in [8] is 1750 nM; in [24], greater than 10000 nM; in [25] it was 1640 nM; in experiment [28] it was 770 nM; in experiment [29], 470 nM; in [36], 900 nM. Further, the growth, % of control at 10 µM was -5.72% in experiment [16]; -40% in [17]; 61.7% in [18]; 3.8% in experiment [19]; -45.4% in experiment [31]; 25% in experiment [32].

For `CCCCCCCCCCCCCCCCCCOP(=O)([O-])OC1CC[N+](C)(C)CC1` [PERIFOSINE], the GI50 in [28] came out at 540 nM; in experiment [29], 440 nM.

On to `CCCCCCCCCCCCCC(=O)N(C)CC[N+](CC)(CC)CC`, for which the growth, % of control at 3 µM in [1] was -4.9%; in experiment [6], 9.4%; in [12] it was 3.7%; in [21], 11.3%; in experiment [22] it was -7.5%; in experiment [26] it was 79.2%. The growth, % of control at 1 µM turned out to be 24.1% in experiment [2]; 88% in experiment [3]; 29% in [11]; 3% in [23]; 33.2% in experiment [27]; 11.7% in experiment [33]. Also, the growth, % of control at 0.1 µM was found to be 96.3% in experiment [4]; 103% in experiment [9]; 83.6% in experiment [10]; 92.9% in [14]; 95.7% in experiment [20]; 90.7% in experiment [34]. Further, the growth, % of control at 0.3 µM in [7] worked out at 86.6%; in experiment [13], 56.2%; in experiment [15] it was 76.2%; in experiment [30] it was 84.7%; in experiment [35], 63.2%. Besides, the GI50 came to 230 nM in [8]; 4330 nM in [24]; 360 nM in experiment [25]; 160 nM in [28]; 260 nM in experiment [29]; 280 nM in experiment [36]. Besides, the growth, % of control at 10 µM is -7.5% in experiment [16]; -7.7% in [17]; 43.1% in experiment [18]; -15.5% in experiment [19]; -22.4% in experiment [31]; -8% in experiment [32].

For `CCCCCCCCCCCCCCCC(=O)N1CC[N+](C)(C)CC1`, the GI50 in [24] was 580 nM; in [28], 290 nM; in experiment [29], 480 nM.
